According to patent US20260132141A1, “PROTEIN PHOSPHATASE 2A ACTIVATORS” (University of Florida Research Foundation, Incorporated, priority 2022, published 2026):

Legend:
PP2ACα = PP2ACα (Homo sapiens, UniProt P67775); experiment: surface plasmon resonance (SPR) binding to catalytic subunit PP2ACα; conditions: no KD could be calculated
Excerpt: FIGS. 12A-12E depict surface plasmon resonance (SPR) analysis of the binding of PPA24, PPA27, and NSC49L to catalytic subunit, PP2ACα. FIG. 12A depicts surface plasmon resonance (SPR) studies of PPA24 binding to PP2ACα. FIG. 12B depicts surface plasmon resonance (SPR) studies of PPA27 binding to PP2ACα. FIG. 12C depicts the dissociation constant (KD) of PPA24 binding to PP2ACα. FIG. 12D depicts the dissociation constant (KD) of PPA27 binding to PP2ACα. FIG. 12E depicts surface plasmon resonance (SPR) studies of 100 μM of NSC49L binding to PP2ACα.
Thus, the binding affinity can be in the order of PPA24>PPA27>NSC49L>iHAP1.

[1] = system: normal keratinocyte (HaCaT) cells; experiment: cell viability screen in noncancerous HaCaT cells; type: cell-based
Excerpt: FIGS. 14A-14C depict cell viability screen of PPA24, PPA27, iHAP1, and NSC49L in normal keratinocyte (HaCaT) (FIG. 14A) and epithelial (FHC) (FIG. 14B) cells, where the compounds were able to showcase selectivity to cancerous cells vs. noncancerous cells. FIG. 14C depicts IC50 concentrations of the compounds in the cells. Analyses were done using GraphPad Prism 7.0 Software.
The compounds PPA24, PPA27, iHAP1, and NSC49L were screened in noncancerous cell lines to observe the selectivity these compounds have towards cancerous cells by assessing the differences in IC50 concentrations.

Sequence of PP2ACα (P67775 whole entry): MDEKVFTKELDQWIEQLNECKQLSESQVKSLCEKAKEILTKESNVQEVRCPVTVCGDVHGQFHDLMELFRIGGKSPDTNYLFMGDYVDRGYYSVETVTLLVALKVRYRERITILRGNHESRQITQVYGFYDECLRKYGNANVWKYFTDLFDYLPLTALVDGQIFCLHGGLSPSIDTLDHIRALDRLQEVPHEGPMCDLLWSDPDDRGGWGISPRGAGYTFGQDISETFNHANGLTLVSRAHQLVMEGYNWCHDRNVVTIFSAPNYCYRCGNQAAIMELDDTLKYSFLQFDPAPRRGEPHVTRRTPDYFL

Row | Compound | SPR binding signal to PP2ACα (PP2ACα) | selectivity: cell viability in HaCaT cells versus CRC cells [1]
1 | ClC/C=C/C[N+]12CN3CN(CN(C3)C1)C2.[Cl-] [NSC49L] | only had a binding signal at 100 μM | some selectivity towards cancerous cells
2 | COc1ccc(C(=O)N2c3ccccc3Sc3ccc(Cl)cc32)cc1 [iHAP1] | did not show a clear signal even at high concentrations | do not appear to have a significant difference
